We go through 17 compounds from patent US4889860A (Nova Pharmaceutical Corporation, priority 1987, dated 1989).

Assay [1] addresses delta-type opioid receptor (Rattus norvegicus, UniProt P33533). The experiment in a line: inhibition of specific [^3 H] DADLE binding to rat forebrain membranes. The method, then: (§1) The interaction of some of the novel compounds with mu and delta-type opioid receptors present in brain membranes was examined in vitro. […] DAGO (mu-type receptor) or [^3 H] DADLE (delta-type receptor) was determined using rat forebrain membranes. Computer assisted analysis (EBDA) was used to determine apparent Ki values for the various compounds.
(§2) Values represent the MEAN±S.E.M. of the Ki(nM) for each compound to inhibit specific binding of the indicated ligand to rat brain membranes. The values are from two-five separate experiments and were calculated according to the method of Cheng and Prusoff [Biochem. Pharmacol. 1973, 22, 3099-3108] together with the EBDA Program. Numbers in parentheses are the mean Hill coefficients for each compound to inhibit ligand binding.
(§3) Values represent the MEAN±S.E.M. of the Ki(nM) for each compound to inhibit specific binding of the indicated ligand to rat brain membranes. The values are from two.div.seven separate experiments and were calculated according to the method of Cheng and Prusoff together with the EBDA program. Numbers in parentheses are the mean Hill coefficients for each compound to inhibit ligand binding. N.D.=not determined
(§4) The interaction of some of the novel compounds with mu, delta and kappa - type opioid receptors present in brain membranes was examined in vitro. […] DAGO (mu-type receptor), or [^3 H] DADLE (Delta-type receptor) using rat forebrain membranes and [^3 H] EKC (kappa-type receptor) using guiniea pig cerebellum membrane was determined. Computer assisted analysis (EBDA) was used to determine apparent Ki values for the various compounds.
(§5) The values represent the MEAN±S.E.M. of the Ki(nM) for each compound to inhibit specific binding of the indicated ligand. Each value represents the mean of three individual experiments performed on separate occasions.

Another assay addresses T1, mu-type opioid receptor (Rattus norvegicus, UniProt P33535).
T1 construct: using rat forebrain membranes; from tissue; host or cells: rat forebrain membranes
The experiment in a line: inhibition of specific [^3 H] DAGO binding to rat forebrain membranes. The method, then:
as §1, §2, §3, §4, §5

The target in assay [2] is T2, kappa-type opioid receptor (Cavia porcellus, UniProt P41144).
T2 construct: using guiniea pig cerebellum membrane; from tissue; host or cells: guinea pig cerebellum membranes
T2 sequence (P41144 whole entry): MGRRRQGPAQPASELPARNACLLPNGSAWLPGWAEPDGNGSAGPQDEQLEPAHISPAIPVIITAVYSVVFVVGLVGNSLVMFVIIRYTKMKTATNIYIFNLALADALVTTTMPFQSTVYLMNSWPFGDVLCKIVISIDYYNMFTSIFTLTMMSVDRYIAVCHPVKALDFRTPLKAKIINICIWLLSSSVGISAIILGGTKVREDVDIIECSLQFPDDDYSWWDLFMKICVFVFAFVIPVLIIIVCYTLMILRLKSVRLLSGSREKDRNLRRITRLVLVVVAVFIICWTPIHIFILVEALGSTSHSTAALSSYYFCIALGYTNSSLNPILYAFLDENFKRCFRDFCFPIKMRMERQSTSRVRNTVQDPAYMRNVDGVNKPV
Kind of assay: inhibition of specific [^3 H] EKC binding to guinea pig cerebellum membrane. Here is the method:
as §4, §5

Assay [3] has as its system oxymorphonazine (OMZ)-induced analgesia. Kind of assay: antagonism of oxymorphonazine (OMZ)-induced analgesia (tail flick) in rats. The assay is classed as in vivo, rat. The settings on record: S.C.; for ED50 / ED100: Rattus norvegicus, sc, Table 8; for ED50: read-out: ED 50, oxymorphonazine antagonism; for ED100: read-out: ED 100, oxymorphonazine antagonism; for Percent Antagonism at 1 Hr / Percent Antagonism at 1.5 Hr / Percent Antagonism at 2 Hr / Percent Antagonism at 3 Hr / Percent Antagonism at 4 Hr / Percent Antagonism at 6 Hr / Percent Antagonism at 8 Hr: dose tested (mg/kg): Naltrexone 0.5, Nalmefene 1.0, XI 10.0, XII 2.5, XIII 0.5, XIV 5.0. The method, then:
The compound of Example XII was evaluated for its potency and duration in the antagonism of oxymorphonazine (OMZ)-induced analgesia. […] Data represent the mean SEM of 4-5 animals per group.
(Cowan A. Trendsin Pharmacology Science, 7:69-72, 1986) With this test the intracerebroventricular administration of bombesin produces a characteristic scratching response.

Where [4] appears, read: read-out: Ki, inhibition of specific [^3 H] DADLE binding, Tables 1 and 2, rat brain membranes, MEAN±S.E.M.
The mark [5] stands for this setting: Ki, inhibition of specific [^3 H] DAGO binding, Tables 1 and 2, rat brain membranes, MEAN±S.E.M.
Setting [6] is: read-out: (Ki) nM, δ receptor (Rat Forebrain), Table 6, [^3 H] DADLE, mean of three experiments.
Setting [7] is: (Ki) nM, μ receptor (Rat Forebrain), Table 6, [^3 H] DAGO, mean of three experiments.

Where two headings read alike, the source gives them in different places.

Sequence of delta-type opioid receptor (P33533 whole entry): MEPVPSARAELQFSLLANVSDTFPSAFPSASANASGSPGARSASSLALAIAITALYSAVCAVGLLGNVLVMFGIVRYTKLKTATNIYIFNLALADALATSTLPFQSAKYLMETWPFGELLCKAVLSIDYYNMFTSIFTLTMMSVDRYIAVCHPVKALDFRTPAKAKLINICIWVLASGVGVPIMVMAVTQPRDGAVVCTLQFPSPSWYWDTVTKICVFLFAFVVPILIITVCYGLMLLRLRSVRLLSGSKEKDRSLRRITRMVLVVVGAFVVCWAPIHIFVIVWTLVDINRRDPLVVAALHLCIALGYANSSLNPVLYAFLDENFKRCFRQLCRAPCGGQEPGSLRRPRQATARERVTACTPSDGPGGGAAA
T1 sequence (P33535 whole entry): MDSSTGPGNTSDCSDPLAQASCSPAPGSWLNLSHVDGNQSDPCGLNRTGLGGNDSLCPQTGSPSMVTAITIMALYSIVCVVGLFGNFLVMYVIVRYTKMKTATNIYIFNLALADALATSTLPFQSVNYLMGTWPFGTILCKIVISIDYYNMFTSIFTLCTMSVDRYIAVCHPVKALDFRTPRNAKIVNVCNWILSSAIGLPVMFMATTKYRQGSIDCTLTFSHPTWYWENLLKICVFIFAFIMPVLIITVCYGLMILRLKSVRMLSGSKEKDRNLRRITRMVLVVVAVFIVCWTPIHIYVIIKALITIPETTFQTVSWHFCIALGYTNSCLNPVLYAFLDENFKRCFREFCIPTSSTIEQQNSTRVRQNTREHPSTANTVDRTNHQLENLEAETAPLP

In the case of `CON=C1CC[C@@]2(O)[C@H]3Cc4ccc(O)c5c4[C@@]2(CCN3C)[C@H]1O5` [Example II, 6-Methyloximino-17-methyl-4,5 α-epoxy-3, 14-dihydroxymorphinan], the results for the Ki (in assay [1] (setting [4]); on mu-type opioid receptor (setting [5])) were 3.44 ± 0.83 nM and 0.97 ± 0.1 nM, respectively.
Regarding `ON=C1CC[C@@]2(O)[C@H]3Cc4ccc(O)c5c4[C@@]2(CCN3CC2CC2)[C@H]1O5` [Example IX, 6-Oximino-17-cyclopropylmethyl-4,5 α-epoxy-3, 14-dihydroxymorphinan], the Ki in assay [1] (setting [6]) is 1.64 nM; in assay [2], 2.05 nM; at mu-type opioid receptor (setting [7]) it was 0.24 nM; on mu-type opioid receptor (Tables 1 and 2, rat brain membranes, MEAN±S.E.M., read-out: Ki, inhibition of specific [^3 H] DAGO binding), 0.24 ± 0.03 nM. The “mean Hill coefficient, [^3 H] DAGO binding” value at mu-type opioid receptor (Tables 1 and 2, numbers in parentheses) is on record as 0.81. In addition, the “fold more potent to inhibit specific [^3 H]DAGO binding” value at mu-type opioid receptor (than compound of Example X or XI, or naltrexone) is given as 3 fold.
`CON=C1CC[C@@]2(O)[C@H]3Cc4ccc(O)c5c4[C@@]2(CCN3CC2CC2)[C@H]1O5` [Example X, 6-Methyloximino-17-cyclopropylmethyl-4,5 α-epoxy-3, 14-dihydroxymorphinan]: the values for the Ki (in assay [1] (setting [4]); at mu-type opioid receptor (setting [5])) were 1.8 ± 0.22 nM and 0.66 ± 0.06 nM, respectively.
Take `Oc1ccc2c3c1O[C@H]1C(=NOCc4ccccc4)CC[C@@]4(O)[C@@H](C2)N(CC2CC2)CC[C@]314` [Example XI, 6-Benzyloximino-17-cyclopropylmethyl-4, 5 α-epoxy-3, 14-dihydroxymorphinan]: the Ki in assay [1] (setting [6]) is 0.87 nM. Moreover, the Ki in assay [1] (setting [4]) was determined as 0.7 ± 0.22 nM. Moreover, in assay [3], the ED50 was 1.2 mg/kg, the ED100 was determined as 13 mg/kg, the “Percent Antagonism at 1 Hr” value was 72% and the “Percent Antagonism at 1.5 Hr” value came out at 86%. Also, in assay [3], the “Percent Antagonism at 2 Hr” value turned out to be 91%, the “Percent Antagonism at 3 Hr” value was determined as 93%, the “Percent Antagonism at 4 Hr” value was determined as 103% and the “Percent Antagonism at 6 Hr” value turned out to be 122%. Besides, the “Percent Antagonism at 8 Hr” value in assay [3] is on record as 64%. Further, the Ki at mu-type opioid receptor (setting [7]) turned out to be 0.55 nM. This compound also showed a Ki on mu-type opioid receptor (setting [5]) of 0.55 ± 0.12 nM.
For the compound `Cc1ccc(ON=C2CC[C@@]3(O)[C@H]4Cc5ccc(O)c6c5[C@@]3(CCN4CC3CC3)[C@H]2O6)cc1C` [Example XIII, 6-[3,4-dimethylphenyl]oximino-17-cyclopropylmethyl-4,5α-epoxy-3,14-dihydroxymorphinan], the inhibitory constant (Ki) in assay [1] (setting [6]) is 2.69 nM. In assay [3], the ED50 was determined as 0.09 mg/kg, the ED100 was 0.74 mg/kg, the “Percent Antagonism at 1 Hr” value was 77% and the “Percent Antagonism at 1.5 Hr” value amounted to 72%. In assay [3], the “Percent Antagonism at 2 Hr” value was found to be 67%, the “Percent Antagonism at 3 Hr” value turned out to be 79%, the “Percent Antagonism at 4 Hr” value is recorded as 72% and the “Percent Antagonism at 6 Hr” value came out at 71%. In addition, in assay [3], the “Percent Antagonism at 8 Hr” value was 97%. In addition, affinity at mu-type opioid receptor (setting [7]) was put at a Ki of 1.64 nM.
As to `Oc1ccc2c3c1O[C@H]1C(=NOC4CCCc5ccccc54)CC[C@@]4(O)[C@@H](C2)N(CC2CC2)CC[C@]314` (stereo partly drawn) [Example XIV, 6-[1,2,3,4-tetrahydronaphth-1-yl]oximino-17-cyclopropylmethyl-4,5 α-epoxy-3,14-dihydroxymorphinan], the Ki in assay [1] (setting [6]) is 0.6 nM. Further, the inhibition constant (Ki) in assay [2] was determined as 4.66 nM. Further, in assay [3], the ED50 amounted to 0.02 mg/kg, the ED100 is 6.73 mg/kg, the “Percent Antagonism at 1 Hr” value came out at 80% and the “Percent Antagonism at 1.5 Hr” value stood at 84%. In assay [3], the “Percent Antagonism at 2 Hr” value is given as 82%, the “Percent Antagonism at 3 Hr” value is 84%, the “Percent Antagonism at 4 Hr” value is 83% and the “Percent Antagonism at 6 Hr” value is given as 41%. Besides, the “Percent Antagonism at 8 Hr” value in assay [3] is reported as 20%. For the same compound, affinity at mu-type opioid receptor (setting [7]) was put at a Ki of 2.76 nM.
Consider `Cc1cccc(ON=C2CC[C@@]3(O)[C@H]4Cc5ccc(O)c6c5[C@@]3(CCN4CC3CC3)[C@H]2O6)c1C` [Example XV, 6-[2,3-dimethylphenyl]oximino-17-cyclopropylmethyl-4,5 α-epoxy-3,14-dihydroxymorphinan], for which the Ki amounted to 1.23 nM in assay [1] (setting [6]) and 1.19 nM on mu-type opioid receptor (setting [7]).
The matching figures for `Oc1ccc2c3c1O[C@H]1C(=NOc4ccc(C(F)(F)F)cc4)CC[C@@]4(O)[C@@H](C2)N(CC2CC2)CC[C@]314` [Example XVII, 6-[4-trifluoromethylphenyl]oximino-17-cyclopropylmethyl-4,5 α-epoxy-3,14-dihydroxymorphinan]: 34.4 nM and 26.4 nM.
With `CC(C)(C)ON=C1CC[C@@]2(O)[C@H]3Cc4ccc(O)c5c4[C@@]2(CCN3CC2CC2)[C@H]1O5` [Example XVI], the values for the Ki (in assay [1] (setting [6]); in assay [2]; on mu-type opioid receptor (setting [7])) were 0.41 nM, 7.39 nM and 1.01 nM, respectively.
In the case of `N=C(N)c1ccc(ON=C2CC[C@@]3(O)[C@H]4Cc5ccc(O)c6c5[C@@]3(CCN4CC3CC3)[C@H]2O6)cc1` [Example XX, 6-[4-iminoaminomethylphenyl]oximino-17-cyclopropylmethyl-4,5 α-epoxy-3,14-dihydroxymorphinan], the Ki was found to be 1.67 nM in assay [1] (setting [6]); 0.64 nM in assay [2] (read-out: (Ki) nM, κ receptor (GP Cerebellum), Table 6, [^3 H] EKC, mean of three experiments); 0.73 nM at mu-type opioid receptor (read-out: (Ki) nM, μ receptor (Rat Forebrain), Table 6, [^3 H] DAGO, mean of three experiments).
In the case of `O=C1c2ccccc2C(=O)N1Cc1ccc(ON=C2CC[C@@]3(O)[C@H]4Cc5ccc(O)c6c5[C@@]3(CCN4CC3CC3)[C@H]2O6)cc1` [Example XXI, 6-[4-phthalimidomethylphenyl]oximino-17-cyclopropylmethyl-4,5 α-epoxy-3,14-dihydroxymorphinan], the values for the Ki (in assay [1] (setting [6]); in assay [2]; on mu-type opioid receptor (setting [7])) were 2.57 nM, 18 nM and 7.35 nM, respectively.
For the compound `NCc1ccc(ON=C2CC[C@@]3(O)[C@H]4Cc5ccc(O)c6c5[C@@]3(CCN4CC3CC3)[C@H]2O6)cc1` [Example XXIV, 6-[4-aminomethylphenyl]oximino-17-cyclopropylmethyl-4,5α-epoxy-3,14-dihydroxymorphinan], the Ki amounted to 1 nM in assay [1] (setting [6]), 0.71 nM in assay [2] and 0.34 nM at mu-type opioid receptor (setting [7]).
The corresponding values for `Oc1ccc2c3c1O[C@H]1C(=NOC4CCCCC4)CC[C@@]4(O)[C@@H](C2)N(CC2CC2)CC[C@]314` [Example XXV, 6-cyclohexyloximino-17-cyclopropylmethyl-4,5 α-epoxy-3,14-dihydroxymorphinan] are 0.08 nM, 9.76 nM and 1.1 nM.
The corresponding values for `Oc1ccc2c3c1O[C@H]1C(=NOC4CCCC4)CC[C@@]4(O)[C@@H](C2)N(CC2CC2)CC[C@]314` [Example XXVI, 6-cyclopentyloximino-17-cyclopropylmethyl-4,5 α-epoxy-3,14-dihydroxymorphinan] are 0.04 nM, 7.94 nM and 0.52 nM.
The matching figures for `Oc1ccc2c3c1O[C@H]1C(=NOC45CC6CC(CC(C6)C4)C5)CC[C@@]4(O)[C@@H](C2)N(CC2CC2)CC[C@]314` [Example XXVII, 6-[1-adamantyl]oximino-17-cyclopropylmethyl-4,5 α-epoxy-3,14-dihydroxymorphinan]: 2.63 nM, 6.41 nM and 5.39 nM.
As to `Oc1ccc2c3c1O[C@H]1C(=NOc4ccccc4C(F)(F)F)CC[C@@]4(O)[C@@H](C2)N(CC2CC2)CC[C@]314` [XIX, 6-[2-trifluoromethylphenyl]oximino-17-cyclopropylmethyl-4,5 α-epoxy-3,14-dihydroxymorphinan], the values for the Ki (in assay [1] (setting [6]); at mu-type opioid receptor (setting [7])) were 1.29 nM and 3.77 nM, respectively.
As for `N#Cc1ccc(ON=C2CC[C@@]3(O)[C@H]4Cc5ccc(O)c6c5[C@@]3(CCN4CC3CC3)[C@H]2O6)cc1` [XVIII, 6-[4-cyanophenyl]oximino-17-cyclopropylmethyl-4,5α-epoxy-3,14-dihydroxymorphinan], the results for the Ki (in assay [1] (setting [6]); in assay [2]; on mu-type opioid receptor (setting [7])) were 1.64 nM, 12.9 nM and 2.07 nM, respectively.
